Here are results for 7 molecules from PubChem BioAssay (NCI).

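Assay format: 96-well plates, 48-hour exposure. TGI is the concentration that stops growth completely.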 Some results are limits rather than exact numbers.

Assay in all cases: NCI tumour cell line growth inhibition, 48 h
Test [1] concerns HCT-15 colon.
The test system of test [2] is A549 NSCLC.
Test [3] concerns MDA-MB-435.
Test [4] deals with KM12 colon.
The test system of test [5] is COLO 205 colon.
The test system of test [6] is RPMI-8226 leukemia.
For test [7], the system named is MOLT-4 leukemia.
The subject of test [8] is HOP-92 NSCLC.
Test [9] deals with M14 melanoma.
Test [10] deals with NCI/ADR-RES ovarian.
Test [11] relates to OVCAR-5 ovarian.
The test system of test [12] is MALME-3M melanoma.
The subject of test [13] is SF-295 CNS.
In test [14] the test system is HCC-2998 colon.
Test [15] has as its system HCT-116 colon.
In test [16] the test system is MCF7 breast.
Test [17] deals with SW-620 colon.
The test system of test [18] is HS 578T breast.
Test [19] has as its system A498 renal.
In test [20] the test system is RXF 393 renal.

Regarding `O=C1C=C(Sc2ccccc2)c2nccc3c2c1nc1ccccc13`, the TGI in [1] is 26 µM; in test [2], more than 100 µM; in test [3] it was 31.2 µM; in test [4] it was 51.6 µM; in test [5] it was 31.5 µM; in test [6], more than 100 µM. The TGI in test [7] was 23.5 µM; in [8], 42.3 µM; in [9], 31.7 µM; in test [10], more than 100 µM; in test [11], more than 100 µM; in [12], 30 µM. For the same molecule, the TGI in test [13] was more than 100 µM; in test [14] it was 37.8 µM; in test [15], 30.3 µM; in test [16], 28.7 µM; in test [17], 29.7 µM; in test [18] it was 46.5 µM.

As for `Cn1nc2ccc3nccc(N4CCN(CCO)CC4)c3c2n1`, the TGI in test [1], in [2], in test [3], in test [4], in [5] and in [19] was more than 100 µM in each case. For the same molecule, the TGI in test [7], in test [9], in test [11], in test [12], in test [13] and in test [14] was more than 100 µM each time. Also, the TGI in test [15], in [16], in test [17], in test [18] and in [20] was more than 100 µM in each case.

On to `CC(=O)Nc1ccc(NC(=O)c2c(Cl)c(Cl)c(Cl)c(Cl)c2-c2nc3ccccc3[nH]2)cc1`, for which the TGI in test [1] was more than 100 µM; in test [2], more than 100 µM; in test [3], more than 100 µM; in [4] it was more than 100 µM; in test [5] it was 39.8 µM; in test [19] it was more than 100 µM. Further, the TGI in [6] was 71 µM; in [7] it was 98.7 µM; in test [8] it was 71.7 µM; in test [9] it was more than 100 µM; in test [11], more than 100 µM; in test [12], more than 100 µM. Also, the TGI in test [13], in test [14], in [15], in test [16], in [17] and in test [18] was more than 100 µM in each case. The molecule further gave a TGI in test [20] of 81.5 µM.

For the molecule `CC(=O)O[C@H]1C(=O)[C@@]2(C)[C@H]([C@H](OC(=O)c3cccc(C(F)(F)F)c3)[C@]3(O)C[C@H](OC(=O)[C@H](O)[C@@H](NC(=O)c4ccccc4)c4ccccc4)C(C)=C1C3(C)C)[C@]1(OC(C)=O)CO[C@@H]1C[C@@H]2O`, the TGI was more than 25 µM in test [1]; more than 25 µM in test [2]; less than 0.0025 µM in [3]; 24.8 µM in test [4]; 3.27 µM in [5]; more than 13.6 µM in test [19]. Moreover, the TGI was 0.0862 µM in [6]; 3.57 µM in test [7]; 15.1 µM in [8]; 11.9 µM in test [9]; more than 7.02 µM in test [10]; more than 10.7 µM in test [11]. Moreover, the TGI in test [12] is 10.5 µM; in test [13] it was 13.3 µM; in [15], 3.21 µM; in test [17] it was more than 16.4 µM; in test [18] it was 0.0653 µM; in test [20], 0.809 µM.

As to `Cc1nc(Nc2ccccc2Cl)sc1C(=O)CC(=O)C(=O)Nc1c(Cl)cccc1Cl`, the TGI in [1] was more than 100 µM; in test [2] it was more than 100 µM; in test [3], 50 µM; in [4], 91.4 µM; in [5] it was 38.7 µM; in test [6], more than 100 µM. The TGI in [7] was 67.9 µM; in [8] it was more than 100 µM; in [9], more than 100 µM; in test [10], 54.1 µM; in test [11], more than 100 µM; in [13], more than 100 µM. The TGI in test [14] was more than 100 µM; in [15] it was 52 µM; in [16], more than 100 µM; in test [17], 65.5 µM; in test [18] it was more than 100 µM; in [20], 92.9 µM.

For the molecule `COc1cc(C)c(/C=C/C(=O)N2C(=O)OC[C@@H]2c2ccccc2)c(C)c1`, the TGI in test [1], in [2], in test [3], in [4], in [5] and in test [19] was more than 100 µM each time. Further, the TGI in [6] was more than 100 µM; in test [7], 85.8 µM; in test [8], more than 100 µM; in test [9], more than 100 µM; in test [10] it was more than 100 µM; in test [11] it was more than 100 µM. Also, the TGI in test [12], in test [13], in [14], in test [15], in [17] and in [18] was more than 100 µM in each case. The same molecule registered a TGI in [20] of more than 100 µM.

For the molecule `COC1CC(OC2C(C)OC(OC3C(C)OC(OC4C(O)CC(O[C@H]5CC[C@@]6(C)C(=CC[C@]7(O)[C@@H]6C[C@@H](OC(=O)/C=C/c6ccccc6)[C@@]6(C)[C@]7(O)CC[C@@]6(O)C(C)=O)C5)OC4C)CC3OC)CC2OC)OC(C)C1O` (some centres not stated), the TGI in [1], in [2], in test [3], in test [4], in [5] and in test [6] was more than 6.25 µM throughout. Besides, the TGI in [7], in [8], in test [9], in test [10], in test [11] and in test [12] was more than 6.25 µM each time. In addition, the TGI in test [13], in [14], in test [15], in test [16], in test [17] and in test [18] was more than 6.25 µM throughout.
